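Five concentrations, 48 hours, 96-well plates. GI50 is the concentration that inhibits growth by half.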 Calls of active or inactive are those of the source. No stated cut-off is given here; in the data, active = GI50 up to about 1.1 µM and inactive = higher. Where a SMILES comes first, the peptide text is derived from it. [ ]: non-standard residue; d: D form. The star is where a group is joined. ξ: configuration not given here. NMeF = CN[CH](Cc1ccccc1)C(=O)O; ξNMe2Val = CC(C)C(C(=O)*)N(C)C; NMeV = CN[CH](C(=O)O)C(C)C; OtBu = CC(C)(C)O*
What was measured:
Experiment in all cases: DTP human tumour cell line panel, 48 h
[1] = system: SNB-19
[2] = system: HT-29
[3] = system: HCC 2998
[4] = system: EKVX
[5] = system: OVCAR-4
[6] = system: SN12C
[7] = system: CCRF-CEM
[8] = system: HCT-15
[9] = system: ACHN
[10] = system: UO-31
[11] = system: IGROV-1
[12] = system: 786-0
[13] = system: NCI-H23
[14] = system: M19-MEL
[15] = system: RXF 393
[16] = system: KM12
[17] = system: SNB-75
[18] = system: T47D
[19] = system: NCI/ADR-RES
[20] = system: PC-3

Measured: GI50

COC(=O)C12C3C4C1C1C2C3C41I (centres undefined)
> 100 µM: [8]
inactive: [1] > 100 µM | [2] > 100 µM | [3] > 100 µM | [4] > 100 µM | [5] > 100 µM | [6] > 100 µM | [7] > 100 µM | [9] > 100 µM | [10] > 100 µM | [11] > 100 µM | [12] > 100 µM | [13] > 100 µM | [14] > 100 µM | [15] > 100 µM

COC(=O)C1Cc2c(n(Cc3ccccc3)c3ccccc23)C(CCC(=O)O)N1C(C)C (centres undefined)
inactive: [1] > 100 µM | [2] > 100 µM | [3] > 100 µM | [16] > 100 µM | [4] > 100 µM | [5] > 100 µM | [6] > 100 µM | [7] > 100 µM | [9] > 100 µM | [10] > 100 µM | [11] > 100 µM | [12] > 100 µM | [17] > 100 µM | [13] > 100 µM | [14] > 100 µM
> 100 µM: [8]

CNC(=O)NCCN1N=C(C)/C(=C\c2ccccc2)CC1=O
inactive: [1] > 100 µM | [2] > 100 µM | [3] > 100 µM | [16] > 100 µM | [5] > 100 µM | [6] > 100 µM | [7] > 100 µM | [9] > 100 µM | [10] > 100 µM | [11] > 100 µM | [12] > 100 µM | [17] 29 µM | [13] > 100 µM | [14] > 100 µM | [15] > 100 µM

COc1cc2cnc3c4ccccc4ccc3c2cc1OC
inactive: [1] > 100 µM | [2] > 100 µM | [3] > 100 µM | [16] > 100 µM | [4] 6.73 µM | [5] > 100 µM | [6] > 100 µM | [7] > 100 µM | [9] > 100 µM | [10] > 100 µM | [11] > 100 µM | [12] > 100 µM | [17] > 100 µM | [13] > 100 µM | [14] > 100 µM

O=C1C2[C@@H](C(=O)N1c1ccc(Br)cc1)C13C(=CC2([N+](=O)[O-])[C@@H]2C(=O)N(c4ccc(Br)cc4)C(=O)[C@@H]21)c1ccccc1N3c1ccccc1 (some centres undefined)
> 100 µM: [8]
inactive: [1] > 100 µM | [3] > 100 µM | [16] > 100 µM | [4] > 100 µM | [6] > 100 µM | [7] 46.7 µM | [9] > 100 µM | [10] 18.9 µM | [12] 13.7 µM | [17] > 100 µM | [13] > 100 µM | [14] > 100 µM | [15] > 100 µM

NCCCSCC(=O)O
inactive: [1] > 100 µM | [2] > 100 µM | [3] > 100 µM | [16] > 100 µM | [4] > 100 µM | [5] > 100 µM | [6] > 100 µM | [9] > 100 µM | [10] > 100 µM | [11] > 100 µM | [12] > 100 µM | [17] > 100 µM | [13] > 100 µM | [14] > 100 µM | [15] > 100 µM
> 100 µM: [8]

CC(C)C(C(=O)N(C)C(Cc1ccccc1)C(=O)N(C)C(C(=O)N(C)C(C(=O)N1CCCC1C(=O)OC(C)(C)C)C(C)C)C(C)C)N(C)C (centres undefined) (ξNMe2Val-[NMeF][NMeV][NMeV]P-OtBu; configuration not given here)
51.6 µM: [8]
inactive: [1] 58.3 µM | [2] 40.4 µM | [3] 22.8 µM | [16] 40.6 µM | [4] 64 µM | [6] 50.1 µM | [7] 31.6 µM | [9] 65 µM | [10] 86.7 µM | [11] 90.6 µM | [12] 52.7 µM | [13] 94.6 µM | [14] 78.3 µM

CC(C)N1CCC2(CC1)NNc1ncccc1-n1cccc12
inactive: [1] > 100 µM | [2] > 100 µM | [3] > 100 µM | [16] > 100 µM | [4] > 100 µM | [5] > 100 µM | [6] > 100 µM | [7] > 100 µM | [9] > 100 µM | [10] > 100 µM | [12] > 100 µM | [17] > 100 µM | [13] > 100 µM | [14] > 100 µM
> 10 µM: [8]

CCOC(=O)C1(C(=O)OCC)CC=C(C)CC12C(=O)Nc1ccccc12 (centres undefined)
> 100 µM: [8]
inactive: [1] > 100 µM | [2] > 100 µM | [3] > 100 µM | [16] > 100 µM | [4] > 100 µM | [5] > 100 µM | [6] > 100 µM | [7] > 100 µM | [9] > 100 µM | [11] > 100 µM | [12] > 100 µM | [17] > 100 µM | [13] > 100 µM | [14] > 100 µM

O=C(Nc1c(O)[nH]c(=S)[nH]c1=O)c1ccc2ccccc2n1
> 100 µM: [8]
inactive: [1] > 100 µM | [2] > 100 µM | [5] > 100 µM | [6] > 100 µM | [7] > 100 µM | [9] > 100 µM | [10] > 100 µM | [11] > 100 µM | [12] > 100 µM | [17] > 100 µM | [13] > 100 µM | [14] > 100 µM

COc1cc(/C=C2\C[C@H]3[C@@H]4CC=C5C[C@@H](N6CCCC6)CC[C@]5(C)[C@H]4CC[C@]3(C)[C@H]2OC(C)=O)cc(OC)c1OC
12.6 µM: [8]
inactive: [1] 18.4 µM | [18] 20.3 µM | [2] 10 µM | [19] 16.3 µM | [3] 2.38 µM | [16] 15.1 µM | [4] 14.3 µM | [5] 18.2 µM | [6] 14 µM | [7] 12.9 µM | [20] 14.2 µM | [9] 18.9 µM | [10] 15 µM | [11] 16.3 µM | [12] 11.3 µM | [17] 15.4 µM | [13] 15.2 µM | [15] 11.5 µM

CC(=O)c1cc2c(s1)C(=O)c1ccccc1C2=O
0.61 µM: [8]
active: [1] 0.424 µM | [13] 0.457 µM
inactive: [18] 4.42 µM | [2] 3.4 µM | [19] 1.89 µM | [3] 5.37 µM | [16] 2.04 µM | [4] 4.39 µM | [5] 3.52 µM | [6] 2.59 µM | [7] 1.96 µM | [20] 3.24 µM | [9] 1.36 µM | [10] 1.79 µM | [11] 2.01 µM | [12] 5.93 µM | [17] 2.4 µM | [15] 8.18 µM

CC(C)=CCC/C(C)=C/CC/C(C)=C/CC/C(C)=C/CC/C(C)=C\CC/C(C)=C/CC/C(C)=C/CC/C(C)=C/Cc1cc(O)ccc1O
1.69 µM: [8]
inactive: [1] 10 µM | [18] 1.24 µM | [3] 4.99 µM | [4] 2.31 µM | [5] 1.32 µM | [6] 5.31 µM | [9] 4.75 µM | [10] 1.72 µM | [12] 1.45 µM | [17] 3.41 µM
active: [2] 1.11 µM | [19] 0.459 µM | [16] 0.632 µM | [7] 0.955 µM | [20] 0.689 µM | [11] 0.323 µM | [13] 0.361 µM | [15] 0.344 µM

Cc1ccccc1-c1cc(=O)c2cc(C)c(C)c(C(=O)O)c2o1
> 100 µM: [8]
inactive: [1] > 100 µM | [2] > 100 µM | [3] > 100 µM | [16] > 100 µM | [4] > 100 µM | [5] > 100 µM | [6] > 100 µM | [7] > 100 µM | [9] > 100 µM | [10] > 100 µM | [11] > 100 µM | [12] > 100 µM | [17] > 100 µM | [13] > 100 µM | [14] > 100 µM

CC(C)(C)C(=O)C(C(=O)C(C)(C)C)C(=O)C(C)(C)C
> 100 µM: [8]
inactive: [1] > 100 µM | [18] > 100 µM | [2] > 100 µM | [19] > 100 µM | [3] > 100 µM | [16] > 100 µM | [4] > 100 µM | [5] > 100 µM | [6] > 100 µM | [7] > 100 µM | [20] > 100 µM | [9] > 100 µM | [10] > 100 µM | [11] > 100 µM | [12] > 100 µM | [17] 71 µM | [13] > 100 µM | [15] > 100 µM

C=C(C)[C@@H](O)[C@H](O)C[C@H](C)C1CC[C@]2(C)C1=CC[C@@H]1[C@@]3(C)CC[C@@H](OC(C)=O)C(C)(C)[C@@H]3C[C@@H](OC3OC(COC(C)=O)C(O)C(O)C3O)[C@]12C (some centres undefined)
3.37 µM: [8]
active: [3] 0.354 µM
inactive: [1] 3.71 µM | [18] 2.48 µM | [2] 2.02 µM | [19] 15 µM | [16] 1.6 µM | [4] 3.03 µM | [5] 2.96 µM | [6] 3.21 µM | [7] 2.29 µM | [20] 2.31 µM | [9] 2.44 µM | [10] 3.48 µM | [11] 2.4 µM | [12] 3.44 µM | [17] 2.45 µM | [13] 4.06 µM | [15] 1.98 µM

Source: ChEMBL document CHEMBL1201862, “PubChem BioAssay data set” (2004)
